Assay results: patent US9808456B2, “Piperazine thiazole derivatives useful in the treatment of tauopathies such as Alzheimer's disease” (REMYND NV, priority 2011, dated 2017)

system: M17_3TAU(P301L) cells; test: Neuroblastoma tauopathy model: inhibition of TAU-induced cytotoxicity (LDH) after retinoic acid differentiation; assay type: cell-based; conditions: Homo sapiens, 168 h, inhibition of TAU-induced toxicity, 7 days retinoic acid, LDH readout
Source text: A TAU expression plasmid was constructed by sub-cloning the cDNA encoding for human TAU-P301L protein, wherein proline at position 301 is substituted by a leucine residue, into mammalian expression vector pcDNA3.1 resulting in the plasmid pcDNA3.1-TAUP301L. Plasmids pcDNA3.1 and pcDNA3.1-TAU P301L were transfected into human neuroblastoma cells (BE-M17; ATCC No. CRL2267™) using lipofectamine reagent and subsequently, independent clonal cell lines with the plasmids stably integrated into the genome were selected by antibiotic resistance selection (Geneticin (G418)), resulting in cell lines M17.pcDNA3 and M17_3TAUP301L. Expression of the TAUP301L gene in the M17_3TAUP301L cells was confirmed by Western blot analysis.
Differentiation of the cells with RA leads to phosphorylation and subsequent aggregation of TAU, inducing a tauopathy in these cells. Cytotoxicity of cells was measured by quantification of lactate dehydrogenase (LDH) levels. In dead cells LDH is leaked out of the cells into the medium due to a loss of plasma-membrane integrity.
Briefly, 3 days preceeding the experiment pre-cultures of M17.pcDNA3 and M17_3TAU(P301L) cells were prepared, starting from a stock culture, at a density of 50.000-100.000 cells/cm2 in detection medium (Optimem Reduced Serum without phenol red (Gibco, Cat. 31985-047) supplemented with 1% fetal calf serum (FCS), 1 mM sodium pyruvate, 1× non-essential amino acids (NEAR), 500 μg/ml G418 and 0.5× antibiotic/antimycotic (ABAM)). At the day of the experiment these precultures were diluted to ˜0, 1.106 cells/ml in detection medium without FCS and 60 μL of this suspension is dispensed per well into a 96-well microtiter plate. After 3 hours of incubation at 37° C./5% CO2 an equal volume of detection medium containing 2.5 μM RA was added and subsequently incubated for 7 days at 37° C./5% CO2. After 7 days, LDH activity was determined using the Promega Cytotox 96 Non-Radioactive cytotoxicity assay (Cat. G1780), according the manufacturer's instructions. Cytotoxicity is measured as the ratio of LDH increase in the supernatant divided by the LDH increase in the total cell suspension (sum of the LDH measured in cells and supernatant).
The M17_3TAU(P301L) cell line makes it possible to assess the ability of novel compounds to inhibit TAU-induced cytotoxicity. […] Compounds were tested for their ability to hamper TAU-induced toxicity at different concentrations, ranging from low non-effective concentrations to high potent concentrations. Afterwards, the dose-dependent inhibition curve was used to calculate their EC50 (Table III).

| SMILES | EC50 |
| --- | --- |
| COc1ccc(CCN2CCN(c3nc(N4CCC(F)(F)CC4)ns3)CC2)cc1 [Example 1, 1-[3-(4,4-Difluoro-piperidin-1-yl)-[1,2,4]thiadiazol-5-yl]-4-[2-(4-methoxy-phenyl)-ethyl]-piperazine] | 0.6 nM |
| FC1(F)CCN(c2nsc(N3CCN(CCc4ccc(Cl)cc4)CC3)n2)C1 [Example 3, 1-[2-(4-Chloro-phenyl)-ethyl]-4-[3-(3,3-difluoro-pyrrolidin-1-yl)-[1,2,4]thiadiazol-5-yl]-piperazine] | 8.8 nM |
| FC1CCN(c2nsc(N3CCN(CCc4ccc(Cl)cc4)CC3)n2)CC1 [Example 4, 1-[2-(4-Chloro-phenyl)-ethyl]-4-[3-(4-fluoro-piperidin-1-yl)-[1,2,4]thiadiazol-5-yl]-piperazine] | 84.6 nM |
| FC(F)(F)C1CCN(c2nsc(N3CCN(CCc4ccc(Cl)cc4)CC3)n2)CC1 [Example 5, 1-[2-(4-Chloro-phenyl)-ethyl]-4-[3-(4-trifluoromethyl-piperidin-1-yl)-[1,2,4]thiadiazol-5-yl]-piperazine] | 47 nM |
| Clc1ccc(CCN2CCN(c3nc(N4CCCCC4)ns3)CC2)cc1 [Example 6, 1-[2-(4-Chloro-phenyl)-ethyl]-4-(3-piperidin-1-yl-[1,2,4]thiadiazol-5-yl)-piperazine] | 64.1 nM |
| Clc1ccc(CCN2CCN(c3nc(NCC4CC4)ns3)CC2)cc1 [Example 7, (5-{4-[2-(4-Chloro-phenyl)-ethyl]-piperazin-1-yl}-[1,2,4]thiadiazol-3-yl)-cyclopropylmethyl-amine] | 17.2 nM |
| Clc1ccc(CCN2CCN(c3nc(NC4CCOCC4)ns3)CC2)cc1 [Example 8, (5-{4-[2-(4-Chloro-phenyl)-ethyl]-piperazin-1-yl}-[1,2,4]thiadiazol-3-yl)-(tetrahydro-pyran-4-yl)-amine] | 52.2 nM |
| Clc1ccc(CCN2CCN(c3nc(NC4CCCCC4)ns3)CC2)cc1 [Example 9, (5-{4-[2-(4-Chloro-phenyl)-ethyl]-piperazin-1-yl}-[1,2,4]thiadiazol-3-yl)-cyclohexyl-amine] | 9.4 nM |
| Fc1ccc(CCN2CCN(c3nc(N4CCC(F)(F)CC4)ns3)CC2)cc1F [Example 10, 1-[2-(3,4-Difluoro-phenyl)-ethyl]-4-[3-(4,4-difluoro-piperidin-1-yl)-[1,2,4]thiadiazol-5-yl]-piperazine] | 12.1 nM |
| Fc1ccc(CCN2CCN(c3nc(N4CCC(F)(F)C4)ns3)CC2)cc1F [Example 11, 1-[2-(3,4-Difluoro-phenyl)-ethyl]-4-[3-(3,3-difluoro-pyrrolidin-1-yl)-[1,2,4]thiadiazol-5-yl]-piperazine] | 11.4 nM |
| Fc1ccc(CCN2CCN(c3nc(N4CCC(F)CC4)ns3)CC2)cc1F [Example 12, 1-[2-(3,4-Difluoro-phenyl)-ethyl]-4-[3-(4-fluoro-piperidin-1-yl)-[1,2,4]thiadiazol-5-yl]-piperazine] | 33.3 nM |
| Fc1ccc(CCN2CCN(c3nc(N4CCC(C(F)(F)F)CC4)ns3)CC2)cc1F [Example 13, 1-[2-(3,4-Difluoro-phenyl)-ethyl]-4-[3-(4-trifluoromethyl-piperidin-1-yl)-[1,2,4]thiadiazol-5-yl]-piperazine] | 15.3 nM |
| Fc1ccc(CCN2CCN(c3nc(N4CCCC4)ns3)CC2)cc1F [Example 14, 1-[2-(3,4-Difluoro-phenyl)-ethyl]-4-(3-pyrrolidin-1-yl-[1,2,4]thiadiazol-5-yl)-piperazine] | 176 nM |
| Fc1ccc(CCN2CCN(c3nc(NCC4CC4)ns3)CC2)cc1F [Example 15, Cyclopropylmethyl-(5-{4-[2-(3,4-difluoro-phenyl)-ethyl]-piperazin-1-yl}-[1,2,4]thiadiazol-3-yl)-amine] | 38.4 nM |
| Fc1ccc(CCN2CCN(c3nc(NC4CCOCC4)ns3)CC2)cc1F [Example 16, (5-{4-[2-(3,4-Difluoro-phenyl)-ethyl]-piperazin-1-yl}-[1,2,4]thiadiazol-3-yl)-(tetrahydro-pyran-4-yl)-amine] | 34.5 nM |
| Fc1ccc(CCN2CCN(c3nc(NC4CCCCC4)ns3)CC2)cc1F [Example 17, Cyclohexyl-(5-{4-[2-(3,4-difluoro-phenyl)-ethyl]-piperazin-1-yl}-[1,2,4]thiadiazol-3-yl)-amine] | 3.8 nM |
| Fc1ccc(CCN2CCN(c3nc(N4CCCCC4)ns3)CC2)cc1F [Example 18, 1-[2-(3,4-Difluoro-phenyl)-ethyl]-4-(3-piperidin-1-yl-[1,2,4]thiadiazol-5-yl)-piperazine] | 46.4 nM |
| Fc1ccc(CCN2CCN(c3nc(NC4CCC(C(F)(F)F)CC4)ns3)CC2)cc1F (stereo not drawn) [Example 19, (5-{4-[2-(3,4-Difluoro-phenyl)-ethyl]-piperazin-1-yl}[1,2,4]thiadiazol-3-yl)-(4-trifluoromethyl-cyclohexyl)-amine] | 340 nM |
| CCCCN(CC)c1nsc(N2CCN(CCc3ccc(F)c(F)c3)CC2)n1 [Example 20, Butyl-(5-{4-[2-(3,4-difluoro-phenyl)-ethyl]-piperazin-1-yl}-[1,2,4]thiadiazol-3-yl)-ethyl-amine] | 709 nM |
| COc1ccc(CCN2CCN(c3nc(C4CCCCC4)ns3)CC2)cc1 [Example 21, 1-(3-Cyclohexyl-[1,2,4]thiadiazol-5-yl)-4-[2-(4-methoxy-phenyl)-ethyl]-piperazine] | 2.2 nM |
| COc1cccc(CCN2CCN(c3nc(C4CCCCC4)ns3)CC2)c1 [Example 22, 1-(3-Cyclohexyl-[1,2,4]thiadiazol-5-yl)-4-[2-(3-methoxy-phenyl)-ethyl]-piperazine] | 3 nM |
| CCCCc1nsc(N2CCN(CCc3ccc(OC)cc3)CC2)n1 [Example 23, 1-(3-Butyl-[1,2,4]thiadiazol-5-yl)-4-[2-(4-methoxy-phenyl)-ethyl]-piperazine] | 0.5 nM |
| COc1ccc(CCN2CCN(c3nc(C4CC4)ns3)CC2)cc1 [Example 24, 1-(3-Cyclopropyl-[1,2,4]thiadiazol-5-yl)-4-[2-(4-methoxy-phenyl)-ethyl]-piperazine] | 44.5 nM |
| CCCCc1nsc(N2CCN(CCc3cccc(OC)c3)CC2)n1 [Example 25, 1-(3-Butyl-[1,2,4]thiadiazol-5-yl)-4-[2-(3-methoxy-phenyl)-ethyl]-piperazine] | 2.2 nM |
| COc1cccc(CCN2CCN(c3nc(C4CC4)ns3)CC2)c1 [Example 26, 1-(3-Cyclopropyl-[1,2,4]thiadiazol-5-yl)-4-[2-(3-methoxy-phenyl)-ethyl]-piperazine] | 410 nM |
| Fc1ccc(CCN2CCN(c3nc(C4CCOCC4)ns3)CC2)cc1 [Example 27, 1-[2-(4-Fluoro-phenyl)-ethyl]-4-[3-(tetrahydro-pyran-4-yl)-[1,2,4]thiadiazol-5-yl]-piperazine] | 309 nM |
| COc1ccc(CCN2CCN(c3nc(C4CCOCC4)ns3)CC2)cc1 [Example 28, 1-[2-(4-Methoxy-phenyl)-ethyl]-4-[3-(tetrahydro-pyran-4-yl)[1,2,4]thiadiazol-5-yl]-piperazine] | 33.3 nM |
| COc1cc(CCN2CCN(c3nc(C4CCOCC4)ns3)CC2)ccn1 [Example 29, 1-[2-(2-Methoxy-pyridin-4-yl)-ethyl]-4-[3-(tetrahydro-pyran-4-yl)-[1,2,4]thiadiazol-5-yl]-piperazine] | 203 nM |
| Cc1ccccc1CN1CCN(c2nc(C3CCOCC3)ns2)CC1 [Example 30, 1-(2-Methyl-benzyl)-4-[3-(tetrahydro-pyran-4-yl)-[1,2,4]thiadiazol-5-yl]-piperazine] | 414 nM |
| Fc1ccc(CCN2CCN(c3nc(C4CCOCC4)ns3)CC2)cc1F [Example 31, 1-[2-(3,4-Difluoro-phenyl)-ethyl]-4-[3-(tetrahydro-pyran-4-yl)-[1,2,4]thiadiazol-5-yl]-piperazine] | 308 nM |
